In patent US20230096085A1 (priority 2020, published 2023):
Where two headings read alike, the source gives them in different places.

System: rice blast fungus
Assay type: cell-based
Details: for Preventive value: 1,000 μl on oatmeal culture medium, 25° C. for 7 days, elongation length of hyphae vs without treatment

For `COc1nc(-c2ccc3cnccc3n2)nc(F)c1C(F)(F)F` [Example 4, 6-fluoro-4-methoxy-2-(2-(1,6-naphthyridyl))-5-trifluoromethylpyrimidine], the “control activity against rice blast fungus” value (conclusion from the results in Table 1) was “has a control activity against rice blast fungus”, the Preventive value (test solution concentration 1000 ppm) was 76 and the Preventive value (test solution concentration 2000 ppm) was 100.
